# Laboratory results: patent publication US10035777B2, “Heterocyclic kinase inhibitors” (priority 2014, dated 2018)
# Molecular target: GST-Xa-hAAK1 (Homo sapiens (Human), UniProt Q2M2I8)
# Assay: biochemical
# Details: not given
# Experimental: The assays were performed in U-bottom 384-well plates. […] The reactions were initiated by the combination of bacterially expressed, GST-Xa-hAAK1 with substrates and test compounds. The reactions were incubated at room temperature for 3 hours and terminated by adding 60 μl of 35 mM EDTA buffer to each sample. The reactions were analyzed on the Caliper LabChip 3000 (Caliper, Hopkinton, Mass.) by electrophoretic separation of the fluorescent substrate and phosphorylated product. […] Compounds were dissolved at 10 mM in dimethylsulfoxide (DMSO) and evaluated at eleven concentrations. IC50 values were derived by non-linear regression analysis.
# GST-Xa-hAAK1, sequence (Q2M2I8 whole entry): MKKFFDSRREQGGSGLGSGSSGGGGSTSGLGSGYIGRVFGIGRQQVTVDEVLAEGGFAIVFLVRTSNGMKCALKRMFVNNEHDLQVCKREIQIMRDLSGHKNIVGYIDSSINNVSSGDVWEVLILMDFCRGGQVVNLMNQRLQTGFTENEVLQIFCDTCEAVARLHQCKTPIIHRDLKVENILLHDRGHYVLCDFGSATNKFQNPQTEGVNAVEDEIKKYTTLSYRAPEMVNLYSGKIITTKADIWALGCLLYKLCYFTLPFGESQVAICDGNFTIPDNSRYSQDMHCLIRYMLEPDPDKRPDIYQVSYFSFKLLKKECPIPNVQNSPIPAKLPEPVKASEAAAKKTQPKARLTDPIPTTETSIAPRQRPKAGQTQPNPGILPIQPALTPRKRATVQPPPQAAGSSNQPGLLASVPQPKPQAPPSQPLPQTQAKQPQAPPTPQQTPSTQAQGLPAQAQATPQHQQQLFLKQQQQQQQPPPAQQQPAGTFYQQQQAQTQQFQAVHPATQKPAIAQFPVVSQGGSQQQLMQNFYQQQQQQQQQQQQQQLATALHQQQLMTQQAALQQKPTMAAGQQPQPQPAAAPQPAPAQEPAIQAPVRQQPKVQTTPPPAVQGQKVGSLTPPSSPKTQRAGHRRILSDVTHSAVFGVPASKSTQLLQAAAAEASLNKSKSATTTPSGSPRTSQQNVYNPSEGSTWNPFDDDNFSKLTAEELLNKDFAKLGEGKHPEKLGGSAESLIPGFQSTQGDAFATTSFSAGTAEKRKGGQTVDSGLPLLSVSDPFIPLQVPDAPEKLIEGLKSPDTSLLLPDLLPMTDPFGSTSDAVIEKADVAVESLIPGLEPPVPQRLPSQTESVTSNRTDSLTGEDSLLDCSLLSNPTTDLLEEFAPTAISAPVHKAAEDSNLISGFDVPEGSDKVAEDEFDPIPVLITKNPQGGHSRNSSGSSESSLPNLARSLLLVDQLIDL
row,SMILES,IC50 [nM]
1,"COc1cc2nc([C@H](N)CC(C)C)[nH]c2cc1-c1ccncc1 [Example 47, (R)-1-(5-methoxy-6-(pyridin-4-yl)-1H-benzo[d]imidazol-2-yl)-3-methylbutan-1-amine]",487
2,"CC1(C)CC1c1nc2ccc(-c3ccncc3)cc2[nH]1 (stereo not drawn) [Example 49, 2-(2,2-dimethylcyclopropyl)-6-(pyridin-4-yl)-1H-benzo[d]imidazole]",338
3,"Cn1nc(C(C)(C)C)cc1-c1nc2ccc(-c3ccncc3)cc2[nH]1 [Example 50, 2-(3-(tert-butyl)-1-methyl-1H-pyrazol-5-yl)-6-(pyridin-4-yl)-1H-benzo[d]imidazole]",1730
4,"CC(C)N1CC(c2nc3ccc(-c4ccncc4)cc3[nH]2)CC1=O (stereo not drawn) [Example 51, 1-isopropyl-4-(6-(pyridin-4-yl)-1H-benzo[d]imidazol-2-yl)pyrrolidin-2-one]",783
5,"CC(C)OCc1nc2ccc(-c3ccncc3)cc2[nH]1 [Example 54, 2-(isopropoxymethyl)-6-(pyridin-4-yl)-1H-benzo[d]imidazole]",785
6,"CC(C)(C)OCc1nc2ccc(-c3ccncc3)cc2[nH]1 [Example 55, 2-(tert-butoxymethyl)-6-(pyridin-4-yl)-1H-benzo[d]imidazole]",1790
7,"CN[C@H](CC(C)C)c1nc2cc(-c3ccncc3)ccc2[nH]1 [Example 62, N,3-dimethyl-1-(5-(pyridin-4-yl)-1H-benzo[d]imidazol-2-yl) butan-1-amine]",12
8,"CN[C@H](CC(C)C)c1nc2cc(-c3ccnc(NC(C)=O)c3)ccc2[nH]1 [Example 63, (R)-N-(4-(2-(3-methyl-1-(methylamino)butyl)-1H-benzo[d]imidazol-5-yl)pyridin-2-yl)acetamide]",14
9,"CC(C)CC(CN)c1nc2cc(-c3ccncc3)ccc2[nH]1 (stereo not drawn) [Example 67, 4-methyl-2-(5-(pyridin-4-yl)-1H-benzo[d]imidazol-2-yl) pentan-1-amine]",49
10,"COc1cc2[nH]c([C@H](N)C3CCCC3)nc2cc1-c1cnco1 [Example 68, (R)-cyclopentyl (6-methoxy-5-(oxazol-5-yl)-1H-benzo[d]imidazol-2-yl) methanamine]",50
11,"COc1cc2[nH]c(CC3CCCC3)nc2cc1-c1cnco1 [Example 69, 5-(2-(cyclopentylmethyl)-6-methoxy-1H-benzo[d]imidazol-5-yl) oxazole]",57
12,"N[C@H](CC1CC1)c1nc2cc(-c3ccncc3)ccc2[nH]1 [Example 70, (R)-2-cyclopropyl-1-(5-(pyridin-4-yl)-1H-benzo[d]imidazol-2-yl) ethanamine]",61
13,"COc1cc2[nH]c(C(N)CC3CCCC3)nc2cc1-c1cnco1 (stereo not drawn) [Example 71, 2-cyclopentyl-1-(6-methoxy-5-(oxazol-5-yl)-1H-benzo[d]imidazol-2-yl)ethanamine]",70
14,"c1cc(-c2ccc3[nH]c(CC4CCCCC4)nc3c2)ccn1 [Example 72, 2-(cyclohexylmethyl)-5-(pyridin-4-yl)-1H-benzo[d]imidazole]",108
15,"CNC(CC(C)C)c1nc2cc(-c3ccncc3)c(OC)cc2[nH]1 (stereo not drawn) [Example 73, 1-(6-methoxy-5-(pyridin-4-yl)-1H-benzo[d]imidazol-2-yl)-N,3-dimethylbutan-1-amine]",180
16,"N[C@@H](c1nc2cc(-c3ccncc3)ccc2[nH]1)C1CC1 [Example 74, (R)-cyclopropyl (5-(pyridin-4-yl)-1H-benzo[d]imidazol-2-yl)methanamine]",228
17,"CN[C@H](CC(C)C)c1nc2cc(-c3ccnc(N(C)C)c3)ccc2[nH]1 [Example 75, (R)-N,N-dimethyl-4-(2-(3-methyl-1-(methylamino)butyl)-1H-benzo[d]imidazol-5-yl) pyridin-2-amine]",244
18,"N[C@@H](c1nc2cc(-c3ccncc3)ccc2[nH]1)C1CCOCC1 [Example 77, (R)-(5-(pyridin-4-yl)-1H-benzo[d]imidazol-2-yl) (tetrahydro-2H-pyran-4-yl) methanamine]",436
19,"Cc1noc(C)c1-c1ccc2[nH]c([C@H](N)CC(C)C)nc2c1 [Example 78, (R)-1-(5-(3,5-dimethylisoxazol-4-yl)-1H-benzo[d]imidazol-2-yl)-3-methylbutan-1-amine]",510
20,"CC(c1nc2cc(-c3ccncc3)ccc2[nH]1)N1CCOCC1 (stereo not drawn) [Example 79, 4-(1-(5-(pyridin-4-yl)-1H-benzo[d]imidazol-2-yl)ethyl)morpholine]",591
21,"CC(C)C[C@@H](NC(=O)C(F)(F)F)c1nc2cc(-c3ccncc3)ccc2[nH]1 [Example 80, (R)-2,2,2-trifluoro-N-(3-methyl-1-(5-(pyridin-4-yl)-1H-benzo[d]imidazol-2-yl)butyl)acetamide]",697
22,"CC1CCCC(c2nc3ccc(-c4ccncc4)cc3[nH]2)C1 (stereo not drawn) [Example 81, 2-(3-methylcyclohexyl)-6-(pyridin-4-yl)-1H-benzo[d]imidazole]",1430
23,"COc1cc2[nH]c([C@H](N)C3CCCC3)nc2cc1-c1ccncc1 [Example 82, (R)-cyclopentyl(6-methoxy-5-(pyridin-4-yl)-1H-benzo[d]imidazol-2-yl)methanamine]",1800

# Same assay, conditions: ATP 22 μM; GST-Xa-hAAK1 3.5 nM; room temperature for 3 hours; Caliper LabChip 3000; read-out: AAK1 IC50
row,SMILES,IC50 [nM]
1,"CC(C)C[C@@H](N)c1nc2ccc(-c3cnco3)cc2n1CCO [Example 41, (R)-2-(2-(1-amino-3-methylbutyl)-6-(oxazol-5-yl)-1H-benzo[d]imidazol-1-yl)ethanol]",559
2,"CC(C)C[C@@H](N)c1nc2ccc(-c3ccncc3)cc2n1C [Example 42, (R)-3-methyl-1-(1-methyl-6-(pyridin-4-yl)-1H-benzo[d]imidazol-2-yl)butan-1-amine]",159
3,"CCCn1c([C@H](N)CC(C)C)nc2ccc(-c3ccncc3)cc21 [Example 43, (R)-3-methyl-1-(1-propyl-6-(pyridin-4-yl)-1H-benzo[d]imidazol-2-yl)butan-1-amine]",103
4,"CC(C)C[C@@H](N)c1nc2ccc(-c3ccncc3)cc2n1C(C)C [Example 44, (R)-1-(1-isopropyl-6-(pyridin-4-yl)-1H-benzo[d]imidazol-2-yl)-3-methylbutan-1-amine]",124
5,"CCn1c([C@H](N)CC(C)C)nc2cc(-c3ccncc3)ccc21 [Example 45, (R)-1-(1-ethyl-5-(pyridin-4-yl)-1H-benzo[d]imidazol-2-yl)-3-methylbutan-1-amine]",749
6,"CCn1c([C@H](N)CC(C)C)nc2cc(-c3cnco3)ccc21 [Example 46, (R)-1-(1-ethyl-5-(oxazol-5-yl)-1H-benzo[d]imidazol-2-yl)-3-methylbutan-1-amine]",1540
7,"CC1CC1c1nc2ccc(-c3ccncc3)cc2[nH]1 (stereo not drawn) [Example 48, 2-(2-methylcyclopropyl)-6-(pyridin-4-yl)-1H-benzo[d]imidazole]",897
8,"COc1cnccc1-c1ccc2[nH]c(CCC(C)C)nc2c1 [Example 56, 2-isopentyl-5-(3-methoxypyridin-4-yl)-1H-benzo[d]imidazole]",620
9,"COc1cc(-c2ccc3[nH]c(CCC(C)C)nc3c2)ccn1 [Example 57, 2-isopentyl-5-(2-methoxypyridin-4-yl)-1H-benzo[d]imidazole]",1550
10,"CC(C)CC(C)c1nc2cc(-c3ccncc3)ccc2[nH]1 (stereo not drawn) [Example 58, 2-(4-methylpentan-2-yl)-5-(pyridin-4-yl)-1H-benzo[d]imidazole]",40
11,"CN[C@H](CC(C)C)c1nc2cc(-c3ccnc(N)c3)ccc2[nH]1 [Example 59, (R)-4-(2-(3-methyl-1-(methylamino)butyl)-1H-benzo[d]imidazol-5-yl)pyridin-2-amine]",7
12,"CNc1cc(-c2ccc3[nH]c([C@@H](CC(C)C)NC)nc3c2)ccn1 [Example 61, (R)-N-methyl-4-(2-(3-methyl-1-(methylamino)butyl)-1H-benzo[d]imidazol-5-yl) pyridin-2-amine]",8
13,"COc1cc2[nH]c([C@H](N)C3CCCCC3)nc2cc1-c1cnco1 [Example 64, (R)-cyclohexyl(6-methoxy-5-(oxazol-5-yl)-1H-benzo[d]imidazol-2-yl)methanamine]",16
14,"CC(C)CC(CN)c1nc2cc(-c3cnco3)ccc2[nH]1 (stereo not drawn) [Example 65, 4-methyl-2-(5-(oxazol-5-yl)-1H-benzo[d]imidazol-2-yl)pentan-1-amine]",26
15,"CC(C)(F)CC(N)c1nc2cc(-c3ccncc3)ccc2[nH]1 (stereo not drawn) [Example 76, 3-fluoro-3-methyl-1-(5-(pyridin-4-yl)-1H-benzo[d]imidazol-2-yl)butan-1-amine]",350
16,"CC(C)CC(N)c1nc2cc(-c3ccncc3)ccc2o1 (stereo not drawn) [Example 83, 3-methyl-1-(5-(pyridin-4-yl)benzo[d]oxazol-2-yl)butan-1-amine]",71
17,"CC(C)CC(N)c1nc2ccc(-c3ccncc3)cc2o1 (stereo not drawn) [Example 84, 3-methyl-1-(6-(pyridin-4-yl)benzo[d]oxazol-2-yl)butan-1-amine]",438
18,"CC(C)CCc1nc2ccc(-c3ccncc3)cc2o1 [Example 85, 2-isopentyl-6-(pyridin-4-yl)benzo[d]oxazole]",833
19,"CC(C)CC(C)c1nc2ccc(-c3ccncc3)cc2o1 (stereo not drawn) [Example 87, 2-(4-methylpentan-2-yl)-6-(pyridin-4-yl)benzo[d]oxazole]",92
20,"CC(C)CC(C)c1nc2cc(-c3ccncc3)ccc2o1 (stereo not drawn) [Example 88, 2-(4-methylpentan-2-yl)-5-(pyridin-4-yl)benzo[d]oxazole]",62

# Same assay, conditions: read-out: AAK1 IC50
row,SMILES,IC50 [nM]
1,"CC(C)C[C@@H](NCC(F)(F)F)c1nc2cc(-c3ccncc3)ccc2[nH]1 [Example 66, 3-methyl-1-(5-(pyridin-4-yl)-1H-benzo[d]imidazol-2-yl)-N-(2,2,2-trifluoroethyl)butan-1-amine]",45
2,"C/C(=C\C(C)C)c1nc2cc(-c3ccncc3)ccc2o1 [Example 86, (E)-2-(4-methylpent-2-en-2-yl)-5-(pyridin-4-yl)benzo[d]oxazole]",2310
